Source: ChEMBL document CHEMBL5604063, “ASAP - DENV-2 NS2B-NS3 protease fluorescence dose response” (2024)
Values joined by “and” are separate entries in the source; they are usually repeats but may differ in a detail not shown here. Equal entries are not always repeated.

Key:
Genome polyprotein [1] = molecular target: T1, Genome polyprotein (dengue virus type 2, UniProt P29990); assay type: functional, Thailand/16681/1984
Genome polyprotein [2] = molecular target: T1, Genome polyprotein; assay type: functional, Thailand/16681/1984; remark: listed apart in the source

T1 sequence (P29990 1346-1475 limits assumed): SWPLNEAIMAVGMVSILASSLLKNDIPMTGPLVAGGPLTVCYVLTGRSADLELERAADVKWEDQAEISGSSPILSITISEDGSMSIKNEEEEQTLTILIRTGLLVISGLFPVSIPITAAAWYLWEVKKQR
T1 sequence (P29990 1476-2093 limits assumed): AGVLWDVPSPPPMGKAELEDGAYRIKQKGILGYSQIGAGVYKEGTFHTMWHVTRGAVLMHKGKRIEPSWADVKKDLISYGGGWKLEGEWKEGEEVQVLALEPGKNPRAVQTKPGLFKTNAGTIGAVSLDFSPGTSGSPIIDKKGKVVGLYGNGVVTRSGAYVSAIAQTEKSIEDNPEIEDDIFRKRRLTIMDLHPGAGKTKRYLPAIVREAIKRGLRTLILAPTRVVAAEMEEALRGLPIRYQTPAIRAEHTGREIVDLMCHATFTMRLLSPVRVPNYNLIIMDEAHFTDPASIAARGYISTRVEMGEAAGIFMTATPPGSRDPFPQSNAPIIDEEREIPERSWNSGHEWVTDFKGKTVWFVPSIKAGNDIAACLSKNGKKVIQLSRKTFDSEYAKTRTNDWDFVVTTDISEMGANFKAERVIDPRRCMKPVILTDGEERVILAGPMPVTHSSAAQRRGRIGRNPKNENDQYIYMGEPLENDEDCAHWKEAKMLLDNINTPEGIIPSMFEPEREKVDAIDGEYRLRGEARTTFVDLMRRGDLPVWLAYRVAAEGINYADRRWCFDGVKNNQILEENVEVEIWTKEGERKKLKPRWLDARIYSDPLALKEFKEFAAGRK

Row | SMILES | IC50 (Genome polyprotein [1]) | IC50 (Genome polyprotein [2])
1 | NCCCc1cccc(NC(=O)c2cc(Cl)cc(NC(=O)OCc3ccccc3)c2)n1 | 62.1 µM | > 100 µM
2 | CC(=O)N1CCC([C@H](NC(=O)OCc2ccccc2)C(=O)Nc2cccc(CN)c2)CC1 | > 99.5 µM | > 100 µM
3 | FC(F)(F)Oc1cc(Cl)cc2c(CN3CCC(c4cscn4)CC3)c[nH]c12 | > 99.5 µM | > 100 µM
4 | NCc1cccc(NC(=O)c2cc(Cl)cc(OC3CC3)c2)c1 | > 99.5 µM | > 100 µM
5 | CCCCSc1ccc(Cl)cc1C(=O)Nc1cccc(CN)c1 | > 99.5 µM | > 100 µM
6 | Cc1ncc(C(=O)Nc2cccc(CN)c2)cc1NC(=O)OCc1ccccc1 | > 99.5 µM | > 100 µM
7 | NCc1cccc(NC(=O)c2cc(NC(=O)OCc3ccccc3)cc3c2OCCO3)c1 | > 99.5 µM | > 100 µM
8 | O=C(Nc1cc(Cl)cc(C(=O)NCC2(CO)CCNCC2)c1)OCc1ccccc1 | > 99.5 µM | > 100 µM
9 | NCc1cccc(NC(=O)[C@H](NC(=O)OCc2ccccc2)C2CCN(C(=O)C3CCOCC3)CC2)c1 | > 99.5 µM | > 100 µM
10 | CNCCS(=O)(=O)N1CCC([C@H](NC(=O)OCc2ccccc2)C(=O)Nc2cccc(CN)c2)CC1 | > 99.5 µM | > 100 µM
11 | O=C(Nc1cc(Cl)cc(C(=O)Nc2ccc3c(c2)[C@H]2CC[C@H]3N2)c1)OCc1ccccc1 | 76.4 µM | > 100 µM
12 | CSc1cc(F)c(C(=O)Nc2cccc(CN)c2)cc1NC(=O)OCc1ccccc1 | 84.2 µM | > 100 µM
13 | CCOCC(=O)N1CCC([C@H](NC(=O)OCc2ccccc2)C(=O)Nc2cccc(CN)c2)CC1 | > 99.5 µM | > 100 µM
14 | O=C1COc2c(cccc2N2CCN(Cc3c[nH]c4ccccc34)CC2)N1 | > 99.5 µM | > 100 µM
15 | NCc1cccc(NC(=O)[C@H](NC(=O)OCc2ccccc2)C2CCN(C3CCCC3)CC2)c1 | > 99.5 µM | > 100 µM
16 | CCN(C)S(=O)(=O)N1CCC([C@H](NC(=O)OCc2ccccc2)C(=O)Nc2cccc(CN)c2)CC1 | > 99.5 µM | > 100 µM
17 | NCCCc1ccccc1NC(=O)c1cc(Cl)cc(NC(=O)OCc2ccccc2)c1 | > 99.5 µM | > 100 µM
18 | CC(C)CC(=O)N1CCC([C@H](NC(=O)OCc2ccccc2)C(=O)Nc2cccc(CN)c2)CC1 | > 99.5 µM | > 100 µM
19 | NCc1cccc(NC(=O)c2cc(Cl)ccc2-n2cncn2)c1 | > 99.5 µM | > 100 µM
20 | COCCOc1ccc(Cl)cc1C(=O)Nc1cccc(CN)c1 | > 99.5 µM | > 100 µM
21 | NCc1cccc(NC(=O)c2cc(Cl)ccc2OC2CCCC2)c1 | > 99.5 µM | > 100 µM
22 | CC(C)N1CCC([C@H](NC(=O)OCc2ccccc2)C(=O)Nc2cccc(CN)c2)CC1 | > 99.5 µM | > 100 µM
23 | NCc1cccc(NC(=O)[C@H](NC(=O)OCc2ccccc2)C2CCN(S(=O)(=O)c3ccccc3)CC2)c1 | > 99.5 µM | > 100 µM
24 | NCCc1nsc(NC(=O)c2cc(Cl)cc(NC(=O)OCc3ccccc3)c2)n1 | > 99.5 µM | > 100 µM
25 | CN(C)Cc1cccc(C(=O)Nc2cccc(CN)c2)c1 | > 99.5 µM | > 100 µM
26 | Cc1nnc(CN2CCC([C@H](NC(=O)OCc3ccccc3)C(=O)Nc3cccc(CN)c3)CC2)s1 | > 99.5 µM | > 100 µM
27 | NCc1cccc(CS(=O)(=O)c2cc(Cl)cc(NC(=O)OCc3ccccc3)c2)c1 | > 99.5 µM | > 100 µM

Row | SMILES | IC50 (Genome polyprotein [1]) | IC50 (Genome polyprotein [2])
28 | CS(=O)(=O)Nc1ccc(Cl)cc1C(=O)Nc1cccc(CN)c1 | > 99.5 µM | > 100 µM
29 | COCc1cc(Cl)cc(C(=O)Nc2cccc(CN)c2)c1 | > 99.5 µM | > 100 µM
30 | O=C(Nc1cc(Cl)cc(C(=O)Nc2cccc([C@H]3CCNC3)c2)c1)OCc1ccccc1 | 33.3 µM and 58.3 µM and 41.4 µM | 95.4 µM and > 100 µM
31 | Cn1nc(CCN)nc1NC(=O)c1cc(Cl)cc(NC(=O)OCc2ccccc2)c1 | > 99.5 µM | > 100 µM
32 | NCc1cccc(NC(=O)[C@H](NC(=O)OCc2ccccc2)C2CCN(Cc3ccccn3)CC2)c1 | > 99.5 µM | > 100 µM
33 | Cc1nccn1CCOc1cccc([C@H](NC(=O)OCc2ccccc2)C(=O)Nc2cccc(CN)c2)c1 | > 99.5 µM | > 100 µM
34 | Cc1cc(CN)cc(NC(=O)c2cc(Cl)cc(NC(=O)OCc3ccccc3)c2)c1 | 42.2 µM | > 100 µM
35 | C[C@H](N)c1cccc(NC(=O)c2cc(Cl)cc(NC(=O)OCc3ccccc3)c2)c1 | 68.6 µM | > 100 µM
36 | NC12CCC(CNC(=O)c3cc(Cl)cc(NC(=O)OCc4ccccc4)c3)(CC1)OC2 | > 99.5 µM | > 100 µM
37 | Clc1ccc(-c2cc(CN3CCC(c4cscn4)CC3)[nH]n2)cc1 | > 99.5 µM | > 100 µM
38 | CCS(=O)(=O)c1ccc(Cl)cc1C(=O)Nc1cccc(CN)c1 | > 99.5 µM | > 100 µM
39 | Cn1cc(C(=O)N2CCC([C@H](NC(=O)OCc3ccccc3)C(=O)Nc3cccc(CN)c3)CC2)cn1 | > 99.5 µM | > 100 µM
40 | Cn1nc([C@@H]2CCCN2)nc1NC(=O)c1cc(Cl)cc(NC(=O)OCc2ccccc2)c1 | > 99.5 µM | > 100 µM
41 | CC(C)(C#N)CS(=O)(=O)N1CCC([C@H](NC(=O)OCc2ccccc2)C(=O)Nc2cccc(CN)c2)CC1 | > 99.5 µM | > 100 µM
42 | NCCCc1ccnc(NC(=O)c2cc(Cl)cc(NC(=O)OCc3ccccc3)c2)c1 | 48.2 µM | > 100 µM
43 | NCc1cccc(NC(=O)[C@H](NC(=O)OCc2ccccc2)C2CCN(C(=O)c3ccco3)CC2)c1 | > 99.5 µM | > 100 µM
44 | NCc1cccc(NC(=O)c2cc(NC(=O)OCc3ccccc3)cc(C(F)(F)F)c2F)c1 | > 99.5 µM | > 100 µM
45 | NCc1cccc(NC(=O)[C@H](NC(=O)OCc2ccccc2)c2ccc(OCc3ccncn3)cc2)c1 | 99.2 µM | > 100 µM
46 | O=c1ccc(N2CCN(Cc3c[nH]c4ccccc34)CC2)n[nH]1 | > 99.5 µM | > 100 µM
47 | NCc1cccc(NC(=O)c2cc(Cl)cc(C3CC3)c2)c1 | > 99.5 µM | > 100 µM
48 | NCc1cccc(NC(=O)c2cc(Cl)cc(N3CCCC3=O)c2)c1 | > 99.5 µM | > 100 µM
49 | Cc1c(CN)cccc1NC(=O)c1cc(Cl)cc(NC(=O)OCc2ccccc2)c1 | > 99.5 µM | > 100 µM
50 | NCc1cccc(NC(=O)[C@H](NC(=O)OCc2ccccc2)C2CCN(S(=O)(=O)c3cccnc3)CC2)c1 | > 99.5 µM | > 100 µM
51 | NCc1cccc(NC(=O)c2cc(Cl)cc3c2NCCC3)c1 | > 99.5 µM | > 100 µM
52 | O=C(Nc1cc(Cl)cc(C(=O)NCc2n[nH]c3c2CNCC3)c1)OCc1ccccc1 | > 99.5 µM | > 100 µM
53 | NCc1cccc(NC(=O)c2cc(Cl)cc3c2OCCNC3)c1 | > 99.5 µM | > 100 µM
54 | c1cnc2[nH]cc(C3CCN(Cc4c[nH]c5ccncc45)CC3)c2c1 | > 99.5 µM | > 100 µM

Row | SMILES | IC50 (Genome polyprotein [1]) | IC50 (Genome polyprotein [2])
55 | Oc1cc(N2CCN(Cc3c[nH]c4ccccc34)CC2)ccn1 | > 99.5 µM | > 100 µM
56 | O=C(Nc1cc(Cl)cc(C(=O)Nc2cccc3c2CNC3)c1)OCc1ccccc1 | > 99.5 µM | > 100 µM
57 | CN(C)Cc1cccc(NC(=O)[C@H](NC(=O)OCc2ccccc2)c2ccc(OCc3ccccc3)cc2)c1 | > 99.5 µM | > 100 µM
58 | NCc1cccc(NC(=O)[C@H](NC(=O)OCc2ccccc2)c2cccc(OC[C@H]3COCCO3)c2)c1 | > 99.5 µM | > 100 µM
59 | NCc1cccc(NC(=O)[C@H](NC(=O)OCc2ccccc2)C2CCN(C(=O)C3CCCCC3)CC2)c1 | > 99.5 µM | > 100 µM
60 | NCc1cccc(NC(=O)c2cc(Cl)cc3c2OCC3)c1 | > 99.5 µM | > 100 µM
61 | NCc1ccc(O)c(NC(=O)c2cc(Cl)cc(NC(=O)OCc3ccccc3)c2)c1 | 74.5 µM | > 100 µM
62 | NCc1cccc(NC(=O)[C@H](NC(=O)OCc2ccccc2)C2CCN(C(=O)Cc3ccccc3)CC2)c1 | > 99.5 µM | > 100 µM
63 | c1nc(C2CCN(Cc3cc(C4CCOCC4)[nH]n3)CC2)cs1 | > 99.5 µM | > 100 µM
64 | CN(C)CCOc1ccc(Cl)cc1C(=O)Nc1cccc(CN)c1 | > 99.5 µM | > 100 µM
65 | N#Cc1cccc2[nH]cc(CN3CCC(c4cscn4)CC3)c12 | > 99.5 µM | > 100 µM
66 | O=C1Nc2ncccc2C[C@H]1NCc1n[nH]c2ccccc12 | > 99.5 µM | > 100 µM
67 | Cc1ccc(NC(=O)c2cc(Cl)cc(NC(=O)OCc3ccccc3)c2)cc1CN | > 99.5 µM and 95.8 µM | > 100 µM
68 | NCc1cccc(NC(=O)[C@H](NC(=O)OCc2ccccc2)C2CCN(C(=O)c3ccccc3)CC2)c1 | > 99.5 µM | > 100 µM
69 | CCCCS(=O)(=O)N1CCC([C@H](NC(=O)OCc2ccccc2)C(=O)Nc2cccc(CN)c2)CC1 | > 99.5 µM | 99 µM
70 | CSc1cc(Cl)cc(C(=O)Nc2cccc(CN)c2)c1 | > 99.5 µM | > 100 µM
71 | CN1C(=O)C[C@H](C(=O)Nc2cccc(CN)c2)[C@H]1c1ccc(Cl)c(Cl)c1 | > 99.5 µM | > 100 µM
72 | c1cncc(-c2cc(CN3CCC(c4cscn4)CC3)n[nH]2)c1 | > 99.5 µM | > 100 µM
73 | Cc1ncc(NC(=O)OCc2ccccc2)cc1C(=O)Nc1cccc(CN)c1 | > 99.5 µM | > 100 µM
74 | NCc1cn(CCNC(=O)c2cc(Cl)cc(NC(=O)OCc3ccccc3)c2)nn1 | > 99.5 µM | > 100 µM
75 | Cc1ocnc1COc1cccc([C@H](NC(=O)OCc2ccccc2)C(=O)Nc2cccc(CN)c2)c1 | > 99.5 µM | > 100 µM
76 | CCOCCS(=O)(=O)N1CCC([C@H](NC(=O)OCc2ccccc2)C(=O)Nc2cccc(CN)c2)CC1 | > 99.5 µM | > 100 µM
77 | NCc1cccc(NC(=O)[C@H](NC(=O)OCc2ccccc2)C2CCN(CCc3ccccc3)CC2)c1 | > 99.5 µM | > 100 µM
78 | Cn1ncc(CN2CCC([C@H](NC(=O)OCc3ccccc3)C(=O)Nc3cccc(CN)c3)CC2)n1 | > 99.5 µM | > 100 µM
79 | COCCN1C(=O)C[C@H](C(=O)Nc2cccc(CN)c2)[C@H]1c1ccc(Cl)c(F)c1 | > 99.5 µM | > 100 µM
80 | NCc1cccc(NC(=O)c2cc(Cl)cc3c2CCC3)c1 | > 99.5 µM | > 100 µM
